Broadly, the IC50 is the concentration that gives 50% inhibition.

T1 sequence (P18177 1-543): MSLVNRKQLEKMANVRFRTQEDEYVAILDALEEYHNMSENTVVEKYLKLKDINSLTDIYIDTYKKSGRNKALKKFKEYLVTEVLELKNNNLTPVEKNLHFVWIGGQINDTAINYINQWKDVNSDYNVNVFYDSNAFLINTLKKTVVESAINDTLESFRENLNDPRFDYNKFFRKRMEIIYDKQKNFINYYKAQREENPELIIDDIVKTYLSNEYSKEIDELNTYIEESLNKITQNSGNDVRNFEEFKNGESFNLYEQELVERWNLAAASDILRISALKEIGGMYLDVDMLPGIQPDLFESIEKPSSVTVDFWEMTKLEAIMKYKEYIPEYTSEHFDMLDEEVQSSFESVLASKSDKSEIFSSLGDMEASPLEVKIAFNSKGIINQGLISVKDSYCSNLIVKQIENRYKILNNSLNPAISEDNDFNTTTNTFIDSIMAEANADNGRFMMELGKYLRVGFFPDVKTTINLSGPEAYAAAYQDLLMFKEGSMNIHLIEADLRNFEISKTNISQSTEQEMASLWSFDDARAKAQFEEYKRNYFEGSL

This experiment addresses T1, recombinant glucosyltransferase domain of C. difficile Toxin B/TcdB (Clostridioides difficile, UniProt P18177).
T1 construct: 6-His (C); purchased R&D Systems 6246-GT
Put plainly: biochemical.
Turning to `Cc1nnc(NC(=O)c2ccc(CN3C(=O)c4ccc(Cl)cc4NC(=O)[C@H]3Cc3ccccn3)cc2)o1` [Example 4bo, (R)-4-((8-chloro-2,5-dioxo-3-(pyridin-2-ylmethyl)-2,3-dihydro-1H-benzo[e][1,4]diazepin-4(5H)-yl)methyl)-N-(5-methyl-1,3,4-oxadiazol-2-yl)benzamide], the IC50 was less than 100 nM.

As to `O=C(O)c1ccc(CN2C(=O)c3ccc(Cl)cc3NC(=O)[C@H]2Cc2ccccn2)cc1-c1cccc(Cl)c1` [Example 8j, (R)-3′-chloro-5-((8-chloro-2,5-dioxo-3-(pyridin-2-ylmethyl)-2,3-dihydro-1H-benzo[e][1,4]diazepin-4(5H)-yl)methyl)-[1,1′-biphenyl]-2-carboxylic acid], the IC50 fell in the range of 100 to 999 nM.

In the case of `O=C(Nc1ncccc1Cl)c1ccc(CN2C(=O)c3ccc(Cl)cc3NC(=O)[C@H]2Cc2cccnc2)cc1` [Example 5e, (R)-4-((8-chloro-2,5-dioxo-3-(pyridin-3-ylmethyl)-2,3-dihydro-1H-benzo[e][1,4]diazepin-4(5H)-yl)methyl)-N-(3-chloropyridin-2-yl)benzamide], the half-inhibitory concentration (IC50) lay in the range of 100 to 999 nM.

Regarding `O=C(O)c1ccc(CN2C(=O)c3ccc(Cl)cc3NC(=O)[C@H]2Cc2ccc(O)cc2)cc1` [Example 2d], the half-maximal inhibitory concentration (IC50) was in the range of 1000 to 10000 nM.

For `COc1ccc(S(=O)(=O)NC(=O)c2ccc(CN3C(=O)c4ccc(Cl)cc4NC(=O)[C@H]3Cc3cccnc3)cc2)cc1` [Example 15d, (R)-4-((8-chloro-2,5-dioxo-3-(pyridin-3-ylmethyl)-2,3-dihydro-1H-benzo[e][1,4]diazepin-4(5H)-yl)methyl)-N-((4-methoxyphenyl)sulfonyl)benzamide], the IC50 was 1000 to 10000 nM.

As to `O=C(O)c1ccc(CN2C(=O)c3ccc(Br)cc3NC(=O)[C@H]2Cc2cccnc2)cc1` [Example 1g], the half-inhibitory concentration (IC50) lay in the range of 1000 to 10000 nM.

Regarding `Cc1cccnc1NC(=O)c1ccc(CN2C(=O)c3ccc(Cl)cc3NC(=O)[C@H]2Cc2cccnc2)cc1` [Example 4k, (R)-4-((8-chloro-2,5-dioxo-3-(pyridin-3-ylmethyl)-2,3-dihydro-1H-benzo[e][1,4]diazepin-4(5H)-yl)methyl)-N-(3-methylpyridin-2-yl)benzamide], the half-maximal inhibitory concentration (IC50) was in the range of 100 to 999 nM.

As to `O=C1Nc2cc(Cl)ccc2C(=O)N(C[C@H]2CC[C@H](C(=O)c3cccc4cccnc34)CC2)[C@@H]1Cc1ccccn1` [Example 33a, (R)-8-Chloro-3-(pyridin-2-ylmethyl)-4-(((1r,4R)-4-(quinoline-8-carbonyl)cyclohexyl)methyl)-3,4-dihydro-1H-benzo[e][1,4]diazepine-2,5-dione], the IC50 lay within 10000 to 35000 nM.

Take `COc1ccc(NC(=O)c2ccc(CN3C(=O)c4ccc(Cl)cc4NC(=O)[C@H]3Cc3ccccn3)cc2)nn1` [Example 4bm, (R)-4-((8-chloro-2,5-dioxo-3-(pyridin-2-ylmethyl)-2,3-dihydro-1H-benzo[e][1,4]diazepin-4(5H)-yl)methyl)-N-(6-methoxypyridazin-3-yl)benzamide]: the half-inhibitory concentration (IC50) is less than 100 nM.

Consider `COc1ccc(NC(=O)c2ccc(CN3C(=O)c4ccc(Cl)cc4NC(=O)[C@H]3Cc3ccccn3)cc2)nc1` [Example 4ao, (R)-4-((8-chloro-2,5-dioxo-3-(pyridin-2-ylmethyl)-2,3-dihydro-1H-benzo[e][1,4]diazepin-4(5H)-yl)methyl)-N-(5-methoxypyridin-2-yl)benzamide], for which the IC50 was less than 100 nM.

Consider `CCc1ccc(NC(=O)c2ccc(CN3C(=O)c4ccc(Cl)cc4NC(=O)[C@H]3Cc3cccnc3)cc2)nc1` [Example 5k, (R)-4-((8-chloro-2,5-dioxo-3-(pyridin-3-ylmethyl)-2,3-dihydro-1H-benzo[e][1,4]diazepin-4(5H)-yl)methyl)-N-(5-ethylpyridin-2-yl)benzamide], for which the IC50 was less than 100 nM.

For `O=C(Nc1ccccn1)c1ccc(CN2C(=O)c3ccc(Cl)cc3NC(=O)[C@H]2Cc2ccccc2Cl)cc1` [Example 4w, (R)-4-((8-chloro-3-(2-chlorobenzyl)-2,5-dioxo-2,3-dihydro-1H-benzo[e][1,4]diazepin-4(5H)-yl)methyl)-N-(pyridin-2-yl)benzamide], the IC50 was less than 100 nM.

Regarding `O=C(c1ccc(CN2C(=O)c3ccc(Cl)cc3NC(=O)[C@H]2Cc2ccccn2)cc1)c1cccc2cccnc12` [Example 31b], the half-inhibitory concentration (IC50) was 1000 to 10000 nM.

Consider `CC(=O)Nc1cccc(-c2cc(CN3C(=O)c4ccc(Cl)cc4NC(=O)[C@H]3Cc3ccccn3)ccc2C(=O)O)c1` [Example 8q, (R)-3′-acetamido-5-((8-chloro-2,5-dioxo-3-(pyridin-2-ylmethyl)-2,3-dihydro-1H-benzo[e][1,4]diazepin-4(5H)-yl)methyl)-[1,1′-biphenyl]-2-carboxylic acid], for which the IC50 was in the range of 100 to 999 nM.

Regarding `O=C(O)c1ccc(CN2C(=O)c3ccc(Cl)cc3NC(=O)[C@H]2Cc2ccc(Cl)cc2)cc1` [Example 3e], the 50% inhibitory concentration (IC50) is 10000 to 35000 nM.

For the compound `Cn1cc(C(=O)N2CCC(CN3C(=O)c4ccc(Cl)cc4NC(=O)[C@H]3Cc3ccccn3)CC2)c2ncccc21` [Example 43a, (R)-8-Chloro-4-((1-(1-methyl-1H-pyrrolo[3,2-b]pyridine-3-carbonyl)piperidin-4-yl)methyl)-3-(pyridin-2-ylmethyl)-3,4-dihydro-1H-benzo[e][1,4]diazepine-2,5-dione], the half-maximal inhibitory concentration (IC50) fell in the range of 1000 to 10000 nM.

As for `Cc1ccc(NC(=O)c2ccc(CN3C(=O)c4ccc(Cl)cc4NC(=O)[C@H]3CCO)cc2)nc1` [Example 9a, (R)-4-((8-Chloro-3-(2-hydroxyethyl)-2,5-dioxo-2,3-dihydro-1H-benzo[e][1,4]diazepin-4(5H)-yl)methyl)-N-(5-methylpyridin-2-yl)benzamide], the IC50 lay in the range of 100 to 999 nM.

In the case of `Cc1ccnc(NC(=O)c2ccc(CN3C(=O)c4ccc(Cl)cc4NC(=O)[C@H]3Cc3cccnc3)cc2)c1` [Example 4s, (R)-4-((8-chloro-2,5-dioxo-3-(pyridin-3-ylmethyl)-2,3-dihydro-1H-benzo[e][1,4]diazepin-4(5H)-yl)methyl)-N-(4-methylpyridin-2-yl)benzamide], the IC50 was less than 100 nM.

On to `Cc1ccc(C(=O)Nc2c(C)cc(CN3C(=O)c4ccc(Cl)cc4NC(=O)[C@H]3Cc3ccccn3)cc2C)nc1` [Example 26l], for which the IC50 lay in the range of 100 to 999 nM.

As for `O=C(O)c1ccc(CN2C(=O)c3ccc(Cl)cc3NC(=O)[C@H]2Cc2ccccn2)cc1F` [Example 1i], the half-inhibitory concentration (IC50) was 100 to 999 nM.

As to `O=C(Nc1ncccn1)c1ccc(CN2C(=O)c3ccc(Cl)cc3NC(=O)[C@H]2Cc2cccnc2)cc1` [Example 5b, (R)-4-((8-chloro-2,5-dioxo-3-(pyridin-3-ylmethyl)-2,3-dihydro-1H-benzo[e][1,4]diazepin-4(5H)-yl)methyl)-N-(pyrimidin-2-yl)benzamide], the concentration for half-maximal inhibition (IC50) is less than 100 nM.

Take `O=C(Nc1ccc(C(F)(F)F)cn1)c1ccc(CN2C(=O)c3ccc(Cl)cc3NC(=O)[C@H]2Cc2ccccn2)s1` [Example 4bt, (R)-5-((8-chloro-2,5-dioxo-3-(pyridin-2-ylmethyl)-2,3-dihydro-1H-benzo[e][1,4]diazepin-4(5H)-yl)methyl)-N-(5-(trifluoromethyl)pyridin-2-yl)thiophene-2-carboxamide]: the concentration for half-maximal inhibition (IC50) was in the range of 1000 to 10000 nM.

For the compound `N#Cc1cccc(C[C@@H]2C(=O)Nc3cc(Cl)ccc3C(=O)N2Cc2ccc(C(=O)O)cc2)c1` [Example 3n], the IC50 fell in the range of 1000 to 10000 nM.

With `Cc1cnc(NC(=O)c2ccc(CN3C(=O)c4ccc(Cl)cc4NC(=O)[C@H]3C)cc2)cn1` [Example 4bi, (R)-4-((8-chloro-3-methyl-2,5-dioxo-2,3-dihydro-1H-benzo[e][1,4]diazepin-4(5H)-yl)methyl)-N-(5-methylpyrazin-2-yl)benzamide], the IC50 lay within 100 to 999 nM.

In the case of `COc1cc(CN2C(=O)c3ccc(Cl)cc3NC(=O)[C@H]2Cc2ccccn2)ccc1C(=O)O` [Example 7d, (R)-4-((8-chloro-2,5-dioxo-3-(pyridin-2-ylmethyl)-2,3-dihydro-1H-benzo[e][1,4]diazepin-4(5H)-yl)methyl)-2-methoxybenzoic acid], the IC50 was in the range of 100 to 999 nM.

As to `COCCC(=O)Nc1ccc2c(c1)NC(=O)[C@@H](C)N(Cc1ccc(C(=O)Nc3ccc(C)cn3)cc1)C2=O` [Example 18a, (R)-4-((8-(3-Methoxypropanamido)-3-methyl-2,5-dioxo-2,3-dihydro-1H-benzo[e][1,4]diazepin-4(5H)-yl)methyl)-N-(5-methylpyridin-2-yl)benzamide], the half-inhibitory concentration (IC50) lay in the range of 1000 to 10000 nM.

For `O=C1Nc2cc(Cl)ccc2C(=O)N(Cc2cccc(NS(=O)(=O)c3ccccn3)c2)[C@@H]1Cc1ccccn1` [Example 30c], the IC50 lay in the range of 1000 to 10000 nM.

With `O=C(Nc1cccc(CN2C(=O)c3ccc(Cl)cc3NC(=O)[C@H]2Cc2ccccn2)c1)c1ccccn1` [Example 28a, (R)—N-(3-((8-Chloro-2,5-dioxo-3-(pyridin-2-ylmethyl)-2,3-dihydro-1H-benzo[e][1,4]diazepin-4(5H)-yl)methyl)phenyl)picolinamide], the IC50 was less than 100 nM.

With `Cc1cc(C(=O)c2ccc(CN3C(=O)c4ccc(Cl)cc4NC(=O)[C@H]3Cc3ccccn3)cc2)c2nccn2c1` [Example 31e], the 50% inhibitory concentration (IC50) is 1000 to 10000 nM.

`COCC(=O)Nc1cccc(CN2C(=O)c3ccc(Cl)cc3NC(=O)[C@H]2Cc2ccccn2)c1` [Example 28b]: the IC50 lay in the range of 1000 to 10000 nM.

Consider `O=C(O)c1ccc(CN2C(=O)c3ccc(Cl)cc3NC(=O)[C@H]2Cc2cscn2)cc1` [Example 1m], for which the concentration for half-maximal inhibition (IC50) was 1000 to 10000 nM.

For `O=C(O)c1ccc(CN2C(=O)c3ccc(Cl)cc3NC(=O)[C@H]2Cc2ccccc2)cc1` [Example 3a, (R)-4-((3-Benzyl-8-chloro-2,5-dioxo-2,3-dihydro-1H-benzo[e][1,4]diazepin-4(5H)-yl)methyl)benzoic Acid], the 50% inhibitory concentration (IC50) fell in the range of 1000 to 10000 nM.

Regarding `Cn1ccnc1C(=O)c1ccc(CN2C(=O)c3ccc(Cl)cc3NC(=O)[C@H]2Cc2ccccn2)cc1` [Example 31c], the IC50 lay in the range of 100 to 999 nM.

As for `O=C(O)c1ccc(CN2C(=O)c3ccc([N+](=O)[O-])cc3NC(=O)[C@H]2Cc2ccc(Cl)c(Cl)c2)cc1` [Example 2h], the IC50 lay in the range of 1000 to 10000 nM.

As to `CC(=O)Nc1cc(CN2C(=O)c3ccc(Cl)cc3NC(=O)[C@H]2Cc2ccccn2)ccc1C(=O)O` [Example 22a, (R)-2-Acetamido-4-((8-chloro-2,5-dioxo-3-(pyridin-2-ylmethyl)-2,3-dihydro-1H-benzo[e][1,4]diazepin-4(5H)-yl)methyl)benzoic Acid], the concentration for half-maximal inhibition (IC50) lay within 100 to 999 nM.

For the origin of these results see patent US10669242B2 (priority 2016, dated 2020).
